Results reported in PubChem BioAssay (NCI).
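All cell lines were grown in 96-well plates and treated with compound for 48 hours. Abbreviation: GI50, concentration required for 50% inhibition of growth. At the TGI there is no net growth.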

Key:
Assay in all cases: NCI tumour cell line growth inhibition, 48 h
786-0 renal = tested on: 786-0 renal
A498 renal = tested on: A498 renal
A549 NSCLC = tested on: A549 NSCLC
ACHN renal = tested on: ACHN renal
CAKI-1 renal = tested on: CAKI-1 renal
CCRF-CEM leukemia = tested on: CCRF-CEM leukemia
COLO 205 colon = tested on: COLO 205 colon
DLD-1 colon = tested on: DLD-1 colon
DMS 273 small cell lung = tested on: DMS 273 small cell lung
HCC-2998 colon = tested on: HCC-2998 colon
HCT-116 colon = tested on: HCT-116 colon
HCT-15 colon = tested on: HCT-15 colon
HL-60(TB) leukemia = tested on: HL-60(TB) leukemia
HOP-18 NSCLC = tested on: HOP-18 NSCLC
HOP-62 NSCLC = tested on: HOP-62 NSCLC
HOP-92 NSCLC = tested on: HOP-92 NSCLC
HT29 colon = tested on: HT29 colon
IGROV1 ovarian = tested on: IGROV1 ovarian
K-562 leukemia = tested on: K-562 leukemia
KM12 colon = tested on: KM12 colon
KM20L2 colon = tested on: KM20L2 colon
LOX IMVI melanoma = tested on: LOX IMVI melanoma
LXFL 529 NSCLC = tested on: LXFL 529 NSCLC
M14 melanoma = tested on: M14 melanoma
M19-MEL melanoma = tested on: M19-MEL melanoma
MALME-3M melanoma = tested on: MALME-3M melanoma
MOLT-4 leukemia = tested on: MOLT-4 leukemia
NCI-H226 lung = tested on: NCI-H226 lung
NCI-H23 lung = tested on: NCI-H23 lung
NCI-H460 lung = tested on: NCI-H460 lung
NCI-H522 lung = tested on: NCI-H522 lung
OVCAR-3 ovarian = tested on: OVCAR-3 ovarian
OVCAR-4 ovarian = tested on: OVCAR-4 ovarian
OVCAR-8 ovarian = tested on: OVCAR-8 ovarian
RPMI-8226 leukemia = tested on: RPMI-8226 leukemia
RXF 393 renal = tested on: RXF 393 renal
SF-268 CNS = tested on: SF-268 CNS
SF-295 CNS = tested on: SF-295 CNS
SF-539 CNS = tested on: SF-539 CNS
SK-MEL-2 melanoma = tested on: SK-MEL-2 melanoma
SK-MEL-28 melanoma = tested on: SK-MEL-28 melanoma
SK-MEL-5 melanoma = tested on: SK-MEL-5 melanoma
SK-OV-3 ovarian = tested on: SK-OV-3 ovarian
SN12C renal = tested on: SN12C renal
SNB-19 CNS = tested on: SNB-19 CNS
SNB-75 CNS = tested on: SNB-75 CNS
SNB-78 CNS = tested on: SNB-78 CNS
SW-620 colon = tested on: SW-620 colon
TK-10 renal = tested on: TK-10 renal
U251 CNS = tested on: U251 CNS
UACC-257 melanoma = tested on: UACC-257 melanoma
UACC-62 melanoma = tested on: UACC-62 melanoma
UO-31 renal = tested on: UO-31 renal
XF 498 CNS = tested on: XF 498 CNS
EKVX NSCLC = tested on: EKVX NSCLC
OVCAR-5 ovarian = tested on: OVCAR-5 ovarian

N[C@@H]1CCCC[C@@H]1N.O=P([O-])([O-])CNCP(=O)([O-])[O-].[Pt+2]
GI50 (786-0 renal): > 100 µM | TGI (786-0 renal): > 100 µM | GI50 (A498 renal): > 100 µM | TGI (A498 renal): > 100 µM | GI50 (A549 NSCLC): > 100 µM | TGI (A549 NSCLC): > 100 µM | GI50 (ACHN renal): > 100 µM | TGI (ACHN renal): > 100 µM | GI50 (CAKI-1 renal): > 100 µM | TGI (CAKI-1 renal): > 100 µM | GI50 (CCRF-CEM leukemia): > 100 µM | TGI (CCRF-CEM leukemia): > 100 µM | GI50 (COLO 205 colon): > 100 µM | TGI (COLO 205 colon): > 100 µM | GI50 (DLD-1 colon): > 100 µM | TGI (DLD-1 colon): > 100 µM | GI50 (DMS 273 small cell lung): > 100 µM | TGI (DMS 273 small cell lung): > 100 µM | GI50 (HCC-2998 colon): > 100 µM | TGI (HCC-2998 colon): > 100 µM | GI50 (HCT-116 colon): > 100 µM | TGI (HCT-116 colon): > 100 µM | GI50 (HCT-15 colon): > 100 µM | TGI (HCT-15 colon): > 100 µM | GI50 (HL-60(TB) leukemia): > 100 µM | TGI (HL-60(TB) leukemia): > 100 µM | GI50 (HOP-18 NSCLC): > 100 µM | TGI (HOP-18 NSCLC): > 100 µM | GI50 (HOP-62 NSCLC): > 100 µM | TGI (HOP-62 NSCLC): > 100 µM | GI50 (HOP-92 NSCLC): > 100 µM | TGI (HOP-92 NSCLC): > 100 µM | GI50 (HT29 colon): > 100 µM | TGI (HT29 colon): > 100 µM | GI50 (IGROV1 ovarian): > 100 µM | TGI (IGROV1 ovarian): > 100 µM | GI50 (K-562 leukemia): > 100 µM | TGI (K-562 leukemia): > 100 µM | GI50 (KM12 colon): > 100 µM | TGI (KM12 colon): > 100 µM | GI50 (KM20L2 colon): > 100 µM | TGI (KM20L2 colon): > 100 µM | GI50 (LOX IMVI melanoma): > 100 µM | TGI (LOX IMVI melanoma): > 100 µM | GI50 (LXFL 529 NSCLC): > 100 µM | TGI (LXFL 529 NSCLC): > 100 µM | GI50 (M14 melanoma): > 100 µM | TGI (M14 melanoma): > 100 µM | GI50 (M19-MEL melanoma): > 100 µM | TGI (M19-MEL melanoma): > 100 µM | GI50 (MALME-3M melanoma): > 100 µM | TGI (MALME-3M melanoma): > 100 µM | GI50 (MOLT-4 leukemia): > 100 µM | TGI (MOLT-4 leukemia): > 100 µM | GI50 (NCI-H226 lung): > 100 µM | TGI (NCI-H226 lung): > 100 µM | GI50 (NCI-H23 lung): > 100 µM | TGI (NCI-H23 lung): > 100 µM | GI50 (NCI-H460 lung): > 100 µM | TGI (NCI-H460 lung): > 100 µM | GI50 (NCI-H522 lung): > 100 µM | TGI (NCI-H522 lung): > 100 µM | GI50 (OVCAR-3 ovarian): > 100 µM | TGI (OVCAR-3 ovarian): > 100 µM | GI50 (OVCAR-4 ovarian): > 100 µM | TGI (OVCAR-4 ovarian): > 100 µM | GI50 (OVCAR-8 ovarian): > 100 µM | TGI (OVCAR-8 ovarian): > 100 µM | GI50 (RPMI-8226 leukemia): > 100 µM | TGI (RPMI-8226 leukemia): > 100 µM | GI50 (RXF 393 renal): > 100 µM | TGI (RXF 393 renal): > 100 µM | GI50 (SF-268 CNS): > 100 µM | TGI (SF-268 CNS): > 100 µM | GI50 (SF-295 CNS): > 100 µM | TGI (SF-295 CNS): > 100 µM | GI50 (SF-539 CNS): > 100 µM | TGI (SF-539 CNS): > 100 µM | GI50 (SK-MEL-2 melanoma): > 100 µM | TGI (SK-MEL-2 melanoma): > 100 µM | GI50 (SK-MEL-28 melanoma): > 100 µM | TGI (SK-MEL-28 melanoma): > 100 µM | GI50 (SK-MEL-5 melanoma): > 100 µM | TGI (SK-MEL-5 melanoma): > 100 µM | GI50 (SK-OV-3 ovarian): > 100 µM | TGI (SK-OV-3 ovarian): > 100 µM | GI50 (SN12C renal): > 100 µM | TGI (SN12C renal): > 100 µM | GI50 (SNB-19 CNS): > 100 µM | TGI (SNB-19 CNS): > 100 µM | GI50 (SNB-75 CNS): > 100 µM | TGI (SNB-75 CNS): > 100 µM | GI50 (SNB-78 CNS): > 100 µM | TGI (SNB-78 CNS): > 100 µM | GI50 (SW-620 colon): > 100 µM | TGI (SW-620 colon): > 100 µM | GI50 (TK-10 renal): > 100 µM | TGI (TK-10 renal): > 100 µM | GI50 (U251 CNS): > 100 µM | TGI (U251 CNS): > 100 µM | GI50 (UACC-257 melanoma): > 100 µM | TGI (UACC-257 melanoma): > 100 µM | GI50 (UACC-62 melanoma): > 100 µM | TGI (UACC-62 melanoma): > 100 µM | GI50 (UO-31 renal): > 100 µM | TGI (UO-31 renal): > 100 µM | GI50 (XF 498 CNS): > 100 µM | TGI (XF 498 CNS): > 100 µM

COc1ccc2ccnc(Cc3ccc(OCc4ccccc4)c(OC)c3)c2c1
TGI (786-0 renal): 44.5 µM | TGI (A498 renal): 54.5 µM | TGI (A549 NSCLC): 79.5 µM | TGI (ACHN renal): 76.3 µM | TGI (CAKI-1 renal): > 100 µM | TGI (CCRF-CEM leukemia): 83.6 µM | TGI (DLD-1 colon): > 100 µM | TGI (EKVX NSCLC): 42.7 µM | TGI (HCC-2998 colon): 38.4 µM | TGI (HCT-116 colon): 29.7 µM | TGI (HCT-15 colon): 44.9 µM | TGI (HOP-18 NSCLC): 62.5 µM | TGI (HOP-62 NSCLC): 35.3 µM | TGI (HT29 colon): > 100 µM | TGI (K-562 leukemia): > 100 µM | TGI (KM12 colon): 37.1 µM | TGI (KM20L2 colon): > 100 µM | TGI (LXFL 529 NSCLC): 80.6 µM | TGI (M14 melanoma): 33.2 µM | TGI (MALME-3M melanoma): 33.9 µM | TGI (MOLT-4 leukemia): 46.6 µM | TGI (NCI-H23 lung): 53 µM | TGI (NCI-H460 lung): 37.8 µM | TGI (NCI-H522 lung): 72.7 µM | TGI (OVCAR-3 ovarian): 34.2 µM | TGI (OVCAR-4 ovarian): 34 µM | TGI (OVCAR-5 ovarian): > 100 µM | TGI (OVCAR-8 ovarian): 43.5 µM | TGI (RPMI-8226 leukemia): 65.3 µM | TGI (SF-268 CNS): 70.3 µM | TGI (SF-295 CNS): 68.1 µM | TGI (SF-539 CNS): 32.3 µM | TGI (SK-MEL-2 melanoma): 39.7 µM | TGI (SK-MEL-28 melanoma): 33.4 µM | TGI (SK-MEL-5 melanoma): 29.9 µM | TGI (SN12C renal): 29.8 µM | TGI (SNB-19 CNS): > 100 µM | TGI (SNB-75 CNS): 76.7 µM | TGI (SNB-78 CNS): 67.6 µM | TGI (SW-620 colon): > 100 µM | TGI (TK-10 renal): 93.2 µM | TGI (U251 CNS): 44.6 µM | TGI (UACC-257 melanoma): 44.7 µM | TGI (UO-31 renal): 19.8 µM | TGI (XF 498 CNS): 31.2 µM
